Here are results for one compound from patent US20060135798A1, “2-Methylene-19-nor-(20S)-1alpha-hydroxy-trishomopregnacalciferol” (Wisconsin Alumni Research Foundation, priority 2004, published 2006).

The structures appear in SMILES notation.

One data set relates to HL-60 cells. The data set can be described thus: HL-60 differentiation (nitro blue tetrazolium reduction). It counts as cell-based, human. The settings on record: compared with 1,25-(OH)2D3; FIG. 2. Here is the method: The study drugs were dissolved in ethanol and the concentrations determined using UV spectrophotometry. Serial dilutions were prepared so that a range of drug concentrations could be tested without changing the final concentration of ethanol (≦0.2%) present in the cell cultures.
Human promyelocytic leukemia (HL60) cells were grown in RPMI-1640 medium containing 10% fetal bovine serum. The cells were incubated at 37° C. in the presence of 5% CO2.
HL60 cells were plated at 1.2×10^5 cells/ml. Eighteen hours after plating, cells in duplicate were treated with drug. Four days later, the cells were harvested and a nitro blue tetrazolium reduction assay was performed (Collins et al., 1979; J. Exp. Med. 149:969-974). The percentage of differentiated cells was determined by counting a total of 200 cells and recording the number that contained intracellular black-blue formazan deposits. Verification of differentiation to monocytic cells was determined by measuring phagocytic activity (data not shown).

Data set [1] deals with 24-hydroxylase (24Ohase) gene promoter. The data set can be described thus: In vitro transcription assay (24-hydroxylase promoter luciferase reporter in ROS 17/2.8 cells). The data set is classed as cell-based. The settings on record: compared with 1,25-(OH)2D3; FIG. 3. On the procedure: Transcription activity was measured in ROS 17/2.8 (bone) cells that were stably transfected with a 24-hydroxylase (24Ohase) gene promoter upstream of a luciferase reporter gene (Arbour et al., 1998). Cells were given a range of doses. Sixteen hours after dosing the cells were harvested and luciferase activities were measured using a luminometer. RLU=relative luciferase units.
Background: Reporter assays use an easily measured gene product as a stand-in for the process of interest.

The nature of data set [2]: Bone calcium mobilization (serum calcium on low calcium diet). It counts as in vivo, rat. The settings on record: rats, ip, even at 2340 pmol/day; FIG. 4. On the procedure:
(§1) Male, weanling Sprague-Dawley rats were placed on Diet 11 (0.47% Ca) diet +AEK for one week followed by Diet 11 (0.02% Ca) +AEK for 3 weeks. The rats were then switched to a diet containing 0.47% Ca for one week followed by two weeks on a diet containing 0.02% Ca. Dose administration began during the last week on 0.02% calcium diet. Four consecutive ip doses were given approximately 24 hours apart. Twenty-four hours after the last dose, blood was collected from the severed neck and the concentration of serum calcium determined as a measure of bone calcium mobilization. The first 10 cm of the intestine was also collected for intestinal calcium transport analysis using the everted gut sac method.

Data set [3] in a line: Hypercalcemia: serum calcium in adult rats. The data set is classed as in vivo, rat. The settings on record: ip, 7 consecutive days. On the procedure:
(§2) Adult, female Sprague-Dawley rats were obtained from Harlan (Madison, Wis.).
(§3) Upon receipt, the animals were identified by individual tail marks. Animals were housed in suspended, stainless steel, wire-bottom cages. Each cage contained one animal. The animal rooms were maintained at a temperature of 68 to 72° F. and a relative humidity of 25 to 75%. The holding rooms were set to provide 12 hours of light per day. Water and a purified rodent diet (Suda et al., Purified Rodent Diet-Diet 11) containing […] 0.3% phosphorus and fat soluble vitamins A, D, E and K were provided ad libitum.
(§4) Animals were randomly assigned to treatment groups (5 animals/group). All doses were administered intraperitoneally in 100 microliters of propylene glycol. Four to seven consecutive doses were given approximately 24 hours apart. Dosing was initiated after the animals had been allowed to acclimate for at least one week.
Both control and test articles were administered by intraperitoneal injection in 100 microliters for 4-7 consecutive days spaced approximately 24 hours apart. […]
Twenty-four hours after the final dose, approximately 1 ml of blood was collected from the tail artery of each experimental animal. […] The level of calcium was determined by diluting the serum into 0.1% lanthum chloride and measuring the absorbance on an atomic absorption spectrophotometer (Perkin Elmer Model 3110, Shelton, Conn.).

Data set [4] can be described thus: Intestinal calcium transport (everted gut sac method). It counts as in vivo, rat. The settings on record: rats, ip; FIG. 5. On the procedure:
as §1

Data set [5] has as its system parathyroid hormone (PTH). The data set can be described thus: PTH suppression in adult rats. The data set is classed as in vivo, rat. The settings on record: ip, 7 consecutive days. On the procedure: as §2, §3, §4
Both control and test articles were administered by intraperitoneal injection in 100 microliters for 4-7 consecutive days spaced approximately 24 hours apart. 1,25(OH)2D3 was given for 4 consecutive days, whereas, the test drugs were given for 7 consecutive days.
Twenty-four hours after the final dose, blood was collected from the tail artery and the concentration of bioactive serum PTH was measured using the rat BioActive Intact PTH ELISA Kit from Immutopics, Inc. (San Clemente, Calif.).

For data set [6], the target named is T1, full-length recombinant rat vitamin D receptor (Rattus norvegicus, UniProt P13053).
T1 construct: Full-length recombinant rat receptor was expressed in E. coli BL21(DE3) Codon Plus RIL cells; histidine tag (C); made in house; host or cells: E. coli BL21(DE3) Codon Plus RIL
T1 sequence (P13053 1-423): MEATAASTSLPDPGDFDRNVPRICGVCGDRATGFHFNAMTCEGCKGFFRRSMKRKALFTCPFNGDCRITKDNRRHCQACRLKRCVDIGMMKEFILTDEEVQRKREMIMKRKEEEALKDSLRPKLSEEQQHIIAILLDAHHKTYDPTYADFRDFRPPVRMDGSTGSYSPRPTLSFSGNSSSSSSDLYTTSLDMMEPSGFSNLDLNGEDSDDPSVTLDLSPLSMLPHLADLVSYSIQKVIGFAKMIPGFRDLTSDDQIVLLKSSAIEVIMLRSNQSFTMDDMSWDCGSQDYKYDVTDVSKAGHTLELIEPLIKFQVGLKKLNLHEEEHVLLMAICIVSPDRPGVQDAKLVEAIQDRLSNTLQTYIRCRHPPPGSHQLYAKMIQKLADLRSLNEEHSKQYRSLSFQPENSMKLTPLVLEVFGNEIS
The data set can be described thus: Vitamin D receptor binding, competition with [3H]-1,25-(OH)2-D3. The settings on record: compared with 1,25(OH)2D3; FIG. 1. Here is the method:
Full-length recombinant rat receptor was expressed in E. coli BL21(DE3) Codon Plus RIL cells and purified to homogeneity using two different column chromatography systems. The first system was a nickel affinity resin that utilizes the C-terminal histidine tag on this protein. The protein that was eluted from this resin was further purified using ion exchange chromatography (S-Sepharose Fast Flow). Aliquots of the purified protein were quick frozen in liquid nitrogen and stored at −80° C. until use. For use in binding assays, the protein was diluted in TEDK50 (50 mM Tris, 1.5 mM EDTA, pH 7.4, 5 mM DTT, 150 mM KCl) with 0.1% Chaps detergent. The receptor protein and ligand concentration was optimized such that no more than 20% of the added radiolabeled ligand was bound to the receptor.
Unlabeled ligands were dissolved in ethanol and the concentrations determined using UV spectrophotometry (1,25(OH)2D3: molar extinction coefficient=18,200 and λmax=265 nm; Analogs: molar extinction coefficient=42,000 and λmax=252 nm). Radiolabeled ligand (^3H-1,25(OH)2D3, ˜159 Ci/mmole) was added in ethanol at a final concentration of 1 nM.
Radiolabeled and unlabeled ligands were added to 100 mcl of the diluted protein at a final ethanol concentration of ≦10%, mixed and incubated overnight on ice to reach binding equilibrium. […] Total binding was determined from the tubes containing only radiolabeled ligand.

In the case of `C=C1[C@H](O)CC(=C/C=C2\CCC[C@]3(C)C([C@@H](C)CCC)CC[C@@H]23)C[C@H]1O` (stereo in doubt) [2-Methylene-19-nor-(20S)-1α-hydroxy-trishomopregnacalciferol], in the data set on HL-60 cells, the “activity in inducing differentiation of HL-60 cells” value is “equal in activity to 1,25-(OH)2D3”. The transcription activity result in data set [1] is “within one order of magnitude of the activity of 1,25-(OH)2D3”. In data set [2], the “bone calcium mobilizing activity” value was “little bone calcium mobilizing activity”. For the same compound, the serum calcium concentrations result in data set [3] is given as “not raising serum calcium concentrations”. Also, in data set [4], the intestinal calcium transport result is “retain some ability to elevate intestinal calcium transport”. Moreover, the “suppression of parathyroid hormone” value in data set [5] is on record as “remarkably effective in suppressing parathyroid hormone”. Besides, in data set [6], the “binding to the vitamin D receptor relative to the native hormone” value is listed as “almost equal to the native hormone”.
